From PubChem BioAssay (NCI)
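Results reflect a 48-hour exposure of cells in 96-well plates to compound at five concentrations. Abbreviation: GI50, concentration required for 50% inhibition of growth. At the TGI there is no net growth.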

Tests used:
Test in all cases: NCI-60 cell line screen, 48 h
M14 melanoma = system: M14 melanoma
K-562 leukemia = system: K-562 leukemia
HOP-62 NSCLC = system: HOP-62 NSCLC
SNB-75 CNS = system: SNB-75 CNS
SK-MEL-5 melanoma = system: SK-MEL-5 melanoma
DU-145 prostate = system: DU-145 prostate
MCF7 breast = system: MCF7 breast
MDA-MB-231 breast = system: MDA-MB-231 breast

SMILES | TGI (M14 melanoma) | TGI (K-562 leukemia) | TGI (HOP-62 NSCLC) | TGI (SNB-75 CNS) | TGI (SK-MEL-5 melanoma) | GI50 (DU-145 prostate) | TGI (DU-145 prostate) | GI50 (M14 melanoma) | GI50 (K-562 leukemia) | GI50 (HOP-62 NSCLC) | GI50 (MCF7 breast) | TGI (MCF7 breast) | GI50 (MDA-MB-231 breast) | TGI (MDA-MB-231 breast) | GI50 (SNB-75 CNS) | GI50 (SK-MEL-5 melanoma)
CC(C)(C)c1cc(CCC(=O)Nc2ccc(Cl)cc2)nc(NC#N)n1 | > 100 µM | > 100 µM | > 100 µM |  |  |  |  |  |  |  |  |  |  |  |  | 
Cc1ccc(NC(=O)CC(=O)n2nc(C)c(N=Nc3ccccc3C(=O)O)c2C)cc1 | > 100 µM | > 100 µM | > 100 µM | > 100 µM | > 100 µM |  |  |  |  |  |  |  |  |  |  | 
CCCC1N2CCCCC2[C@@H]2c3[nH]c4ccccc4c3CCN12 (stereo partly drawn) | > 100 µM | > 100 µM | > 100 µM | > 100 µM | > 100 µM |  |  |  |  |  |  |  |  |  |  | 
N#C/C(=C\c1ccc2ccccc2c1)c1ccccc1 | 65.6 µM |  | 74.6 µM | 48.6 µM | 66.5 µM |  |  |  |  |  |  |  |  |  |  | 
O=C(N/C(=C\c1cccc([N+](=O)[O-])c1)c1nc2ccc([N+](=O)[O-])cc2[nH]1)c1ccccc1 | > 100 µM | > 100 µM |  |  | 43.7 µM |  |  |  |  |  |  |  |  |  |  | 
NC12CC3CC(C1)CC(C(=O)O)(C3)C2 | > 100 µM | > 100 µM | > 100 µM | > 100 µM | > 100 µM |  |  |  |  |  |  |  |  |  |  | 
Cc1ccc2c(c1)Sc1c(ccc3ccccc13)N2 | > 100 µM | > 100 µM | > 100 µM | > 100 µM | > 100 µM | > 100 µM | > 100 µM | > 100 µM | 11.2 µM | > 100 µM | > 100 µM | > 100 µM | 42.1 µM | > 100 µM | 15.5 µM | 12.4 µM
N#CC(C#N)=C1Nc2ccccc2S1 | > 100 µM | > 100 µM | > 100 µM |  | 44.8 µM | 49.2 µM | > 100 µM | 22.6 µM | 38.3 µM | 40.3 µM | 33.5 µM | > 100 µM | 43.4 µM | > 100 µM |  | 22.7 µM
CS(=O)(=O)c1ccc(-n2nc(C(F)(F)F)cc2OC2CCCC2)cc1 | 93.5 µM | 92.6 µM | > 100 µM | > 100 µM | 36.2 µM | 38.9 µM | > 100 µM | 32.2 µM | 29.1 µM | 88 µM | 25.4 µM | 80.2 µM | 26 µM | 71.2 µM | > 100 µM | 19.5 µM
Cc1ccc(C(=O)NC(C)C)cc1-c1ccc(C(=O)NCC2CC2)cc1 | > 25 µM | > 25 µM | > 25 µM | > 25 µM | > 25 µM | > 25 µM | > 25 µM | > 25 µM | > 25 µM | > 25 µM | > 25 µM | > 25 µM | > 25 µM | > 25 µM | > 25 µM | > 25 µM
COCCCNC(=O)C1C(=O)C(=O)N(CCCOC)C1=O (stereo not drawn) | > 100 µM | > 100 µM | > 100 µM | > 100 µM | > 100 µM |  |  |  |  |  |  |  |  |  |  | 
CN(C)CCNC(=O)c1cccc2ccc(-c3ccncc3)nc12 | 16.1 µM | 9.56 µM | 5.56 µM | 9.9 µM | 3.54 µM |  |  |  |  |  |  |  |  |  |  | 
CC/C=C\C[C@H](F)C/C=C1/C(=O)C=C[C@@H]1C/C=C\CCCC(=O)O | 20 µM | > 32.5 µM | 15.2 µM | > 32.5 µM | 9.18 µM | 8.02 µM | 32.4 µM | 6.53 µM | 2.18 µM | 7.65 µM | 1.32 µM | > 32.5 µM | 12.7 µM | > 32.5 µM | 12.5 µM | 4.86 µM
CCCCCCCC(=O)OCC/C=C/C1OC1C1OC(=O)/C=C\C=C\c2nc(oc2C)/C=C(/C)CCC2OC2C1OC(=O)NC(C)=O (stereo not drawn) |  | 1.51 µM | 0.381 µM | 0.0765 µM | 0.0688 µM | 0.0526 µM | 1.37 µM |  | 0.0304 µM | 0.0686 µM | 0.0368 µM | 0.481 µM | 0.0625 µM | 6.38 µM | 0.0277 µM | 0.0248 µM
CC(=O)OCC1OC(NC(=S)N/N=C2\CC(c3ccccc3)Oc3ccccc32)C(OC(C)=O)C(OC(C)=O)C1OC(C)=O (stereo not drawn) | > 100 µM | > 100 µM | > 100 µM | > 100 µM | > 100 µM |  |  |  |  |  |  |  |  |  |  | 
CCOC(=O)/C(=C\c1ccccc1)C(=O)O | > 100 µM | > 100 µM | > 100 µM |  | > 100 µM |  |  |  |  |  |  |  |  |  |  | 
COc1ccc2c(c1)CCCN2c1c2ccccc2nc2ccccc12 |  | > 100 µM |  | 0.821 µM | 1.66 µM | 0.38 µM | > 100 µM |  | 0.341 µM |  | 0.316 µM | 33.2 µM | 0.665 µM | > 100 µM | 0.2 µM | 0.35 µM
O=C(O)CCSC(=O)Nc1ccc([N+](=O)[O-])cc1 | > 100 µM | > 100 µM | > 100 µM | 64.7 µM |  |  |  |  |  |  |  |  |  |  |  | 
COc1ccc(NC(=O)CC(=O)N/N=C/c2ccc(N(CCC#N)S(C)(=O)=O)cc2)cc1 | > 100 µM | > 100 µM | > 100 µM | > 100 µM | > 100 µM |  |  |  |  |  |  |  |  |  |  | 
CCOC(=S)SSSC(=S)OCC | > 100 µM | > 100 µM | > 100 µM | > 100 µM | > 100 µM |  | > 100 µM |  |  |  |  | > 100 µM |  | > 100 µM |  | 
COc1cc(Nc2nc3ccccc3nc2-c2cccs2)cc(OC)c1OC |  |  | > 100 µM | > 100 µM |  |  |  |  |  |  |  |  |  |  |  | 
O=C(Nc1ccncc1)C(=O)c1cn(S(=O)(=O)c2cccc(F)c2)c2ccccc12 |  | > 100 µM | 61 µM | 17.8 µM | 37.7 µM | 6.2 µM | > 100 µM |  | 1.65 µM | 3.58 µM | 0.719 µM | > 100 µM | 10.8 µM | > 100 µM | 2.62 µM | 2.83 µM
O=[N+]([O-])c1ccc(C=NC2CCCCC2)cc1 | > 100 µM | > 100 µM | > 100 µM | > 100 µM | > 100 µM |  |  |  |  |  |  |  |  |  |  | 
COc1cc(C(=O)CBr)c(OC)cc1C | > 100 µM | > 100 µM | > 100 µM |  | > 100 µM |  | > 100 µM |  |  |  |  | > 100 µM |  | > 100 µM |  | 
NC(=O)COC(=O)c1c(Cl)nc2sccn12 | > 100 µM | > 100 µM | > 100 µM | > 100 µM | > 100 µM |  |  |  |  |  |  |  |  |  |  | 
